Test results from publication PMC6853232, “Discovery and evaluation of novel synthetic 5-alkyl-4-oxo-4,5-dihydro-[1,2,4]triazolo[4,3-a]quinoxaline-1-carbox-amide derivatives as anti-inflammatory agents” (Journal of Enzyme Inhibition and Medicinal Chemistry, 2019).
Several values for one entry are separate records, joined by “and”; a condition that tells them apart may be missing. Identical values can stand only once.

Tests used:
[1] = test system: IL-6 production in LPS-stimulated RAW264.7 cells; experiment: Cytokine production assay (ELISA), IL-6; type: cell-based, mouse
Description: (§1) RAW264.7 cells were seeded at 3 × 10^5 cells/well in a 48-well microplate and incubated overnight.The cells were pre-treated with the different concentrations of the test compunds (3, 7.5, 10 or 30 µM) for 30 min before the stimulation with LPS (1 µg/mL). According to the protocol of the manufacturer, supernatants were harvested at the 24th hour for the assay of TNF-α or IL-6 with ELISA kits (BD Biosciences, San Diego, CA, USA). Briefly, 100 µL of biotinylated antibody reagent and the culture supernatants were added to anti-mouse TNF-α or IL-6 precoated 96-well plates, and the plates were incubated for 2 h at RT. The plate was washed with a washing buffer and subsequently incubated with 100 µL of the streptavidin-HRP solution for 1 h at RT. The plate was washed, and incubated with 100 µL of TMB substrate solution for 30 min at RT in the dark. The reaction was stopped by adding 50 µL of stop solution, and then the absorbance was measured at 450 nm by a plate reader. A standard curve was produced for each assay plate using serially diluted recombinant IL-6.

[2] = test system: COX-2 protein expression in LPS-induced RAW 264.7 cells; experiment: Western blot, COX-2 protein expression; type: cell-based, mouse; details: 15 µM, LPS 1 µg/mL, p < .001
Description: (§2) The cells were collected and washed three times with ice-cold PBS. The cells were treated with a cell lysis buffer [50 mM Tris (pH 7.6), 150 mM NaCl, 5 mM EDTA (pH 8.0), 0.6% NP-40, 1 mM Na3VO4, 20 mM β-glycerophosphate, 1 mM phenylmethylsulfonyl fluoride, 2 mM p-nitrophenyl phosphate, and 1:25 Complete Mini Protease Inhibitor cocktail (Boehringer, Mannheim,Germany)] and kept on ice for 30 min. The cell lysates were centrifuged (12,000 g at 4 °C) for 5 min to obtain a cytosolic fraction. The protein concentration was determined by BCA protein assay kit (Beyotime, Haimen, China). Aliquots of the lysates were separated on 10% sodium dodecyl sulphate (SDS)-polyacrylamide gel electrophoresis (PAGE) and then electro blotted onto a polyvinylidene difluoride (PVDF) membrane. The blots were blocked with 5% (w/v) non-fat dry milk for 2 h at 37 °C, followed by incubation with specific primary antibody at 4 °C overnight. Blots were washed with Tween 20/Tris-buffered saline [TTBS, 20 mM Tris–HCl buffer, pH 7.6, containing 137 mM NaCl and 0.05% (vol/vol) Tween 20] and incubated with a peroxidase-conjugated secondary antibody for 1 h. Blots were again washed with TTBS and the immune active proteins were detected using ECL plus (Thermo, USA). […] Results are expressed as the relative ratio of the specific band compared with the internal reference.

[3] = test system: carrageenan-induced paw oedema; experiment: Carrageenan-induced paw oedema model; type: in vivo, rats; details: 25 mg/kg p.o., n = 4
Text: The animal procedures were in strict accordance with the National Institutes of Healthy Guidelines for the Care and Use of Laboratory Animals (NIH Publication No. 85-23, revised 1996) and were approved by the Institutional Animal Care and Utilisation Committee of Yanbian University. Male albino rats weighing 280–300 gwere obtained from Animal Department of Yanbian University . They were kept in the animal house under standard condition of light and temperature with free access to food and water. The animals were randomly divided into five groups (control, D1, 6p, ibuprofen and celecoxib group) The groups with D1, 6p, ibuprofen and celecoxib were administered oral administration (p.o.) 25 mg/kg in a vehicle of 0.5% methylcellulose, respectively. The negative control group was treated with the same vehicle (0.5% methylcellulose). A solution of carrageenan (0.1 ml, 1.0% w/v in 0.9% of normal saline) was injected into the subplanter region of the left hind paw under light ether anaesthesia 1 h after oral administration (p.o.) of the test compound (at a dose level of 25 mg/kg body weight). The paw volume was measured at hourly interval for 5 h (0, 1, 3 and 5 h) and the percent inhibition of oedema was calculated using formula: %Inhibition=(Vt−Vo)control−(Vt−Vo)tested compound /(Vt−Vo)control×100 where, • Vo = volume of oedema at zero time interval. • Vt = volume of oedema at specific time interval.

[4] = test system: gastric mucosa (stomach lesions); experiment: Ulcerogenic effect; type: in vivo; details: 25 mg/kg p.o. once a day for three days, rats
Description: The lead compound D1 and the newly synthesised compound 6p were subjected to in vivo testing to measure their ulcerogenic effect in comparison to celecoxib and ibuprofen. Male albino rats (220–250 g) divided into 5 groups (control, D1, 6p, ibuprofen and celecoxib group) of five rats each. The groups with D1, 6p, ibuprofen, and celecoxib were administered oral administration (p.o.) 25 mg/kg in a vehicle of 0.5% methylcellulose, respectively. The negative control group was treated with the same vehicle (0.5% methylcellulose). All groups were orally administered once a day for three consecutive days. Animals were sacrificed by diethyl ether 6 h after the last dose and the stomach was removed. An opening at the greater curvature was made and the stomach was cleaned by washing with cold saline and inspected with a three-time magnifying lens for any evidence of hyperaemia, haemorrhage, definite haemorrhagic erosion, or ulcer. An arbitrary scale was used to calculate the ulcer index which indicates the severity of the stomach lesions The % ulceration for each group was calculated as follows: % Ulceration = Number of animals bearing ulcer in a group/Total number of animals in the same group ×100.

[5] = test system: TNF-α production in LPS-stimulated RAW264.7 cells; experiment: Cytokine production assay (ELISA), TNF-α; type: cell-based, mouse
Description: as §1

[6] = test system: iNOS protein expression in LPS-induced RAW 264.7 cells; experiment: Western blot, iNOS protein expression; type: cell-based, mouse
Description: as §2

[7] = LPS 1 µg/mL, 24 h, different concentrations

melting point: 286 to 288 °C
Compound: COc1cc(Cn2c(=O)c3nnc(C(N)=O)n3c3ccccc32)cc(OC)c1OC [6p, 5-(3,4,5-trimethoxybenzyl)-4-oxo-4,5-dihydro-[1,2, 4]triazolo[4,3-a]quinoxaline-1-carboxamide]
production of IL-6 ([1]; 3 µM, p < .001): significantly inhibited
LPS-induced increase in IL-6 levels [1, 7]: inhibited in a concentration-dependent manner
inhibition of COX-2 protein expression [2]: 53.44%
% of oedema inhibition (% mean ± SD) ([3]; 1 h): 37.01 ± 8.45%
% of oedema inhibition (% mean ± SD) ([3]; 3 h, 25 mg/kg): 50.83% and 50.83 ± 3.47%
% of oedema inhibition (% mean ± SD) ([3]; 5 h): 38.24 ± 6.04%
% ulceration [4]: 20%
production of TNF-α ([5]; 3 µM, p < .001): significantly inhibited
LPS-induced increase in TNF-α levels [5, 7]: inhibited in a concentration-dependent manner
inhibition of iNOS protein expression ([6]; 30 µM, LPS 1 µg/mL, p < .001): 39.89%
iNOS protein expression, dose dependence ([6]; 7.5, 15 and 30 µM): dose-dependent manner
